As a reminder, the pEC50 is the EC50 on a negative log10 scale, so that one unit is a factor of ten. Read a low pEC50 as a high EC50. As a reminder, the Emax is the size of the effect at its maximum, as opposed to the concentration needed.

This note sets out measurements from US12630498B2 (Genzyme Corporation, priority 2019, dated 2026).

The target of test [1] is T1, CFTR-mediated transepithelial chloride transport in primary human bronchial epithelial cells from a ΔF508 homozygous CF donor (Homo sapiens, UniProt P13569, DEL508-508).
T1 construct: Primary human bronchial epithelial cells from a ΔF508 homozygous CF donor; host or cells: primary CF-HBE cells, ΔF508 homozygous donor
In words: TECC24 recording of CFTR-mediated transepithelial chloride transport in CF-HBE cells (AUC fold over DMSO). Conditions: test agent 10 μM, 48 hours incubation, AUC of forskolin-stimulated IEQ relative to DMSO. In kind it is cell-based. An outline of the steps:
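Primary ΔF508/ΔF508 CF-HBE cells on inserts exposed to test agent in IL-13-containing medium for 48 h at 36.5 °C. Current-clamp VT/TEER recording in pH 7.4 HEPES saline with benzamil 10 μM, forskolin 10 μM, then CFTRinh-172 20 μM. AUC of equivalent Cl⁻ current between forskolin and inhibitor, expressed as ratio over vehicle.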

Test [2] has as its target T2, human Cystic Fibrosis Transmembrane Conductance Regulator (CFTR) harboring the ΔF508 mutation (Homo sapiens, UniProt P13569, DEL508-508).
T2 construct: expressed in transfected cells; host or cells: H441 carcinoma line (G418-selected)
In words: H441 cell ΔF508-CFTR-HRP cell surface assay (Emax and EC50). In kind it is cell-based. As to conditions: for Emax: NCI-H441, NA = Not active. The procedure, abridged: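 H441 and 41o- bronchial epithelial cells expressing ΔF508-CFTR with an extracellular-loop-4 HRP tag were treated with a 15-point compound series (24.5–0.001 μM) for two nights, H441 at 27° C, 41o- at 37° C with 0.0005 mg/ml doxycycline. Surface HRP luminescence read; % of maximum VX809 signal and EC50 derived.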

pEC50: −log10 of the molar value.

T2 sequence (P13569 with tags, fused parts or gaps DEL508-508): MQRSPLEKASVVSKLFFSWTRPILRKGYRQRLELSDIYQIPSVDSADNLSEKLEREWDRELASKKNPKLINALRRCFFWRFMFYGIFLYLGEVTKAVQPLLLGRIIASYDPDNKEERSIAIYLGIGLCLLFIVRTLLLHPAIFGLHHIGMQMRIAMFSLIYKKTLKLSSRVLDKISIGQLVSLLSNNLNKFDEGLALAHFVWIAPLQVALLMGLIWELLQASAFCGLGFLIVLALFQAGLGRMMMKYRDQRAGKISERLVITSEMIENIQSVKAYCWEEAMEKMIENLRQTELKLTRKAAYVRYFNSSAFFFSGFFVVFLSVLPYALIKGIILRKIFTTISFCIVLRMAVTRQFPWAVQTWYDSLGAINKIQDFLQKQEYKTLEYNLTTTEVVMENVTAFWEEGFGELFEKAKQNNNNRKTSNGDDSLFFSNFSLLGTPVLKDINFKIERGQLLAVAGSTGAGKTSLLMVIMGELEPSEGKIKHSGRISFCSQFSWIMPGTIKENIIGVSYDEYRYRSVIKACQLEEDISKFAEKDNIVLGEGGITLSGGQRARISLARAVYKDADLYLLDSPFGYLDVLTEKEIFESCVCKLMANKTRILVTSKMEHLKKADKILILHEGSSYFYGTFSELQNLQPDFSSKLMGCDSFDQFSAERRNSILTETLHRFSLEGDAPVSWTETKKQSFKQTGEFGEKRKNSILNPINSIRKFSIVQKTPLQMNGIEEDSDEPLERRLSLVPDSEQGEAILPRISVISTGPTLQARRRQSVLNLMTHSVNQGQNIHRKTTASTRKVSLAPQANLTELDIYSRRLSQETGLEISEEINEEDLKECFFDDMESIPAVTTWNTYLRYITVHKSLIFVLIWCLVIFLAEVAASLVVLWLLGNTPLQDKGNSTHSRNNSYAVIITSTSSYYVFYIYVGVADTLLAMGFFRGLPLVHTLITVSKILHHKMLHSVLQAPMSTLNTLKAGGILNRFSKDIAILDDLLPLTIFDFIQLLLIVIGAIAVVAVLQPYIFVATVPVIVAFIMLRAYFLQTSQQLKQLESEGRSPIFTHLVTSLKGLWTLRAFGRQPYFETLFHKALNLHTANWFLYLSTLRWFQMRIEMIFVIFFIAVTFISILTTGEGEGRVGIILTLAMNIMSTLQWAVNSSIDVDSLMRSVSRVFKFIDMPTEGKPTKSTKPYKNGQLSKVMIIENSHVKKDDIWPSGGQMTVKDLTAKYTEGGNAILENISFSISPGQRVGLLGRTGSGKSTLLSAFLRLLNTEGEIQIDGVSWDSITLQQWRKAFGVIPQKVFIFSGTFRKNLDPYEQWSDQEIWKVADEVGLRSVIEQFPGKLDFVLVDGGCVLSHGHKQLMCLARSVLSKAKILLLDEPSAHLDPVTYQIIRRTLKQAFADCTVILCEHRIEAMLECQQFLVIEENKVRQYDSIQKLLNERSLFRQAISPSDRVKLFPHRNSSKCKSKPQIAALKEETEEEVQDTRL
T1 sequence (P13569 with tags, fused parts or gaps DEL508-508): as above

As to `Cc1ccc2ccc(C(=O)N[C@@H](C(=O)O)C(C)(C)C)c(OCc3ccc(C(F)(F)F)cc3)c2c1` [Example 284, (R)-3,3-dimethyl-2-(7-methyl-1-((4-(trifluoromethyl)benzyl)oxy)-2-naphthamido) butanoic Acid], the “TECC24 AUC fold over DMSO @10 μM” value in test [1] is listed as “C (“C” refers to AUC @10 uM <4)”. In test [2], the pEC50 was 6.30 and the Emax came out at 173%.
For `CC(C)(C)[C@H](NC(=O)c1ccc2cc(F)ccc2c1OCc1ccc(C(F)(F)F)cc1)C(=O)O` [Example 27, (S)-2-(6-fluoro-1-((4-(trifluoromethyl)benzyl)oxy)-2-naphthamido)-3,3-dimethylbutanoic Acid] the same measures were “B (“B” refers to AUC @10 uM between 4-6)”, 6.22 and 134%.
Turning to `CCC1([C@H](NC(=O)c2ccc3ccc(F)cc3c2OCc2ccc(C(F)(F)F)cc2)C(=O)O)CCCC1` [Example 314, (S)-2-(1-ethylcyclopentyl)-2-(7-fluoro-1-((4-(trifluoromethyl)benzyl)oxy)-2-naphthamido)acetic Acid], in test [1], the “TECC24 AUC fold over DMSO @10 μM” value is “A (“A” refers to AUC @10 uM >6)”. In test [2], this compound showed a pEC50 of 6.40 and an Emax of 233%.
On to `CC(C)(C)C[C@H](NC(=O)c1ccc2cc(F)ccc2c1OCC1CCCCC1)C(=O)O` [Example 205, (S)-2-(1-(cyclohexylmethoxy)-6-fluoro-2-naphthamido)-4,4-dimethylpentanoic Acid], for which the “TECC24 AUC fold over DMSO @10 μM” value in test [1] is listed as “C (“C” refers to AUC @10 uM <4)”. In test [2], this compound showed a pEC50 of 5.32 and an Emax of 92.2%.
For `O=C(N[C@H](C(=O)O)[C@H](O)c1ccccc1)c1ccc2ccccc2c1OCc1ccc(C(F)(F)F)cc1` [Example 129, (2S,3R)-3-hydroxy-3-phenyl-2-(1-((4-(trifluoromethyl)benzyl)oxy)-2-naphthamido)propanoic Acid] the same measures were “C (“C” refers to AUC @10 uM <4)”, 4.92 and 29.4%.
The matching figures for `O=C(N[C@H](C(=O)O)C1CCCC1)c1ccc2ccccc2c1OCc1ccc(S(F)(F)(F)(F)F)cc1` [Example 111, (S)-2-cyclopentyl-2-(1-((4-(pentafluoro-16-sulfanyl)benzyl)oxy)-2-naphthamido)acetic Acid]: “B (“B” refers to AUC @10 uM between 4-6)”, 5.64 and 93.1%.
`COc1ccc2ccc(C(=O)N[C@H](C(=O)O)C(C)(C)C)c(OCc3ccc(C(F)(F)F)cc3)c2c1` [Example 308, (S)-2-(7-methoxy-1-((4-(trifluoromethyl)benzyl)oxy)-2-naphthamido)-3,3-dimethylbutanoic Acid]: the “TECC24 AUC fold over DMSO @10 μM” value in test [1] is “A (“A” refers to AUC @10 uM >6)”. Further, in test [2], the pEC50 was 6.30 and the Emax worked out at 408%.
The matching figures for `CC(C)(C)C[C@H](NC(=O)c1ccc2ccccc2c1OCc1ccc(SC(F)(F)F)cc1)C(=O)O` [Example 115, (S)-4,4-dimethyl-2-(1-((4-((trifluoromethyl)thio)benzyl)oxy)-2-naphthamido)pentanoic Acid]: “C (“C” refers to AUC @10 uM <4)”, 5.96 and 84%.
For `O=C(N[C@H](C(=O)O)C(c1ccccc1)c1ccccc1)c1ccc2ccccc2c1OCc1ccc(C(F)(F)F)cc1` [Example 126, (S)-3,3-diphenyl-2-(1-((4-(trifluoromethyl)benzyl)oxy)-2-naphthamido)propanoic Acid] the same measures were “B (“B” refers to AUC @10 uM between 4-6)”, 7.00 and 214%.
Regarding `CC(C)(SC1CCCC1)[C@H](NC(=O)c1ccc2ccccc2c1OCC1CCCCC1)C(=O)O` [Example 170, (R)-2-(1-(cyclohexylmethoxy)-2-naphthamido)-3-(cyclopentylthio)-3-methylbutanoic Acid], in test [1], the “TECC24 AUC fold over DMSO @10 μM” value is “C (“C” refers to AUC @10 uM <4)”. In test [2], this compound had a negative-log EC50 (pEC50) of 5.30 and an Emax of 143%.
On to `CCCC(C)(C)[C@H](NC(=O)c1ccc2ccc(C(F)(F)F)cc2c1OCc1ccc(C(F)(F)F)cc1)C(=O)O` [Example 304, (S)-3,3-dimethyl-2-(7-(trifluoromethyl)-1-((4-(trifluoromethyl)benzyl)oxy)-2-naphthamido)hexanoic Acid], for which the “TECC24 AUC fold over DMSO @10 μM” value in test [1] was “A (“A” refers to AUC @10 uM >6)”. Moreover, in test [2], the negative logarithm of the EC50 (pEC50) is 7.00 and the Emax is 249%.
As to `Cc1ccc2c(OCc3ccc(C(F)(F)F)cc3)c(C(=O)N[C@H](C(=O)O)C(C)(C)C)ccc2c1` [Example 233, (2S)-3,3-dimethyl-2-[[6-methyl-1-[[4-(trifluoromethyl)phenyl]methoxy]naphthalene-2-carbonyl]amino]butanoic Acid], the “TECC24 AUC fold over DMSO @10 μM” value in test [1] is “A (“A” refers to AUC @10 uM >6)”. Also, in test [2], the pEC50 is 4.91 and the Emax amounted to 156%.
In the case of `C[C@@H](OCc1ccccc1)[C@H](NC(=O)c1ccc2ccccc2c1OCc1ccc(Cl)c(Cl)c1)C(=O)O` (stereo in doubt) [Example 206], in test [1], the “TECC24 AUC fold over DMSO @10 μM” value is listed as “C (“C” refers to AUC @10 uM <4)”. In addition, the Emax in test [2] was determined as 4.7%.
For the compound `CC(C)(C)[C@H](NC(=O)c1ccc2cc(F)ccc2c1OCc1ccc(SC(F)(F)F)cc1)C(=O)O` [Example 75, (S)-2-(6-fluoro-1-((4-((trifluoromethyl)thio)benzyl)oxy)-2-naphthamido)-3,3-dimethylbutanoic Acid], the “TECC24 AUC fold over DMSO @10 μM” value in test [1] is on record as “B (“B” refers to AUC @10 uM between 4-6)”. In test [2], this compound had a pEC50 of 6.15 and an Emax of 94.2%.
In the case of `C#CC(C)(C)C(NC(=O)c1ccc2ccccc2c1OCc1ccc(SC(F)(F)F)cc1)C(=O)O` (centres unmarked) [Example 227, 3,3-dimethyl-2-[[1-[[4-(trifluoromethylsulfanyl)phenyl]methoxy]naphthalene-2-carbonyl]amino]pent-4-ynoic Acid], the “TECC24 AUC fold over DMSO @10 μM” value in test [1] is “C (“C” refers to AUC @10 uM <4)”. Further, in test [2], the pEC50 was 5.89 and the Emax turned out to be 160%.
Regarding `O=C(N[C@H](C(=O)O)C1CCCC1)c1ccc2ccccc2c1OCc1ccc(C(F)(F)F)cc1` [Example 154, (S)-2-cyclopentyl-2-(1-((4-(trifluoromethyl)benzyl)oxy)-2-naphthamido)acetic Acid], the “TECC24 AUC fold over DMSO @10 μM” value in test [1] is “A (“A” refers to AUC @10 uM >6)”. In addition, in test [2], the pEC50 was 5.72 and the Emax came out at 118%.
For `O=C(N[C@@H](Cc1c(Cl)cccc1Cl)C(=O)O)c1ccc2ccccc2c1OCc1ccc(C(F)(F)F)cc1` [Example 152, (S)-3-(2,6-dichlorophenyl)-2-(1-((4-(trifluoromethyl)benzyl)oxy)-2-naphthamido)propanoic Acid] the same measures were “C (“C” refers to AUC @10 uM <4)”, 5.14 and 122%.
Turning to `CC(C)(C)[C@H](NC(=O)c1ccc2ccc(C#N)cc2c1OCc1ccc(OC(F)(F)F)cc1)C(=O)O` [Example 254, (2S)-2-[[7-cyano-1-[[4-(trifluoromethoxy)phenyl]methoxy]naphthalene-2-carbonyl]amino]-3,3-dimethyl-butanoic Acid], in test [1], the “TECC24 AUC fold over DMSO @10 μM” value is given as “A (“A” refers to AUC @10 uM >6)”. In test [2], this compound showed a pEC50 of 6.15 and an Emax of 176%.
The matching figures for `CC(C)(C)[C@H](NC(=O)c1ccc2ccccc2c1OCc1ccc(C(F)(F)F)cc1)C(=O)O` [Example 74]: “A (“A” refers to AUC @10 uM >6)”, 6.10 and 216%.
On to `CC(C)(SCC1CC1(F)F)[C@H](NC(=O)c1ccc2ccccc2c1OCc1ccc(C(F)(F)F)cc1)C(=O)O` (stereo partly drawn) [Example 163, (2R)-3-(((2,2-difluorocyclopropyl)methyl)thio)-3-methyl-2-(1-((4-(trifluoromethyl)benzyl)oxy)-2-naphthamido)butanoic Acid], for which the “TECC24 AUC fold over DMSO @10 μM” value in test [1] is on record as “C (“C” refers to AUC @10 uM <4)”. In test [2], the pEC50 was 6.15 and the Emax stood at 138%.
On to `Cc1cc2c(OCc3ccc(C(F)(F)F)cc3)c(C(=O)N[C@H](C(=O)O)C(C)(C)C)ccc2cc1F` [Example 278, (S)-2-(6-fluoro-7-methyl-1-((4-(trifluoromethyl)benzyl)oxy)-2-naphthamido)-3,3-dimethylbutanoic Acid], for which, in test [1], the “TECC24 AUC fold over DMSO @10 μM” value was “A (“A” refers to AUC @10 uM >6)”. For the same compound, in test [2], the pEC50 is 6.70 and the Emax turned out to be 248%.
As to `CC(C)(C)[C@H](NC(=O)c1ccc2ccccc2c1OCc1ccc(C(F)(F)F)cc1F)C(=O)O` [Example 70, (S)-2-(1-((2-fluoro-4-(trifluoromethyl)benzyl)oxy)-2-naphthamido)-3,3-dimethylbutanoic Acid], in test [1], the “TECC24 AUC fold over DMSO @10 μM” value is reported as “C (“C” refers to AUC @10 uM <4)”. In test [2], the pEC50 was 6.10 and the Emax amounted to 272%.
The matching figures for `C#CC(C)(C)C(NC(=O)c1ccc2ccccc2c1OCc1ccc(C(F)(F)F)cc1)C(=O)O` (centres unmarked) [Example 228, 3,3-dimethyl-2-[[1-[[4-(trifluoromethyl)phenyl]methoxy]naphthalene-2-carbonyl]amino]pent-4-ynoic Acid]: “A (“A” refers to AUC @10 uM >6)”, 5.70 and 215%.
